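Test compounds were applied to cells in 96-well plates for 48 hours at 5 doses. At the TGI there is no net growth.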 *1 amine or outer side, *2 acyl side, *3 side chain or, on linkers, in order; H or OH if unused. Where a SMILES comes first, the peptide text is derived from it. [ ]: non-standard residue; d: D form. The star is where a group is joined. ξ: configuration not given here. NMeY = CN[C@@H](Cc1ccc(O)cc1)C(=O)O; Ethylenediamine = C(CN[*:2])N[*:1]; ξNMeL = CNC(CC(C)C)C(=O)O; Cbz = O=C(OCc1ccccc1)*; Lac = C[C@H](O)C(=O)O; ξA = CC(N)C(=O)O Bounds are passed on as bounds.

Among the test systems are HOP-62 NSCLC; SF-268 CNS; SNB-75 CNS; MOLT-4 leukemia; BT-549 breast; HCT-116 colon; HOP-92 NSCLC.
Holding throughout (assay): growth of human tumour cells (NCI), 48 h

Regarding `O/N=C1\CC2(N3CCOCC3)CCC1(c1ccccc1)CC2`, the TGI in the assay with HOP-62 NSCLC, with SF-268 CNS, in the assay on SNB-75 CNS, with MOLT-4 leukemia, in the assay on BT-549 breast and with HCT-116 colon was above 100 µM in each case. This compound showed a TGI in the assay on HOP-92 NSCLC above 100 µM.

Turning to `C=C(Cl)/C(=C\Cl)CCC(Cl)C(C)C` (stereo not drawn), the TGI in the assay on HOP-62 NSCLC, in the assay with SF-268 CNS, in the assay with SNB-75 CNS, with MOLT-4 leukemia, in the assay on BT-549 breast and in the assay with HCT-116 colon was above 100 µM in each case. For the same compound, the TGI in the assay on HOP-92 NSCLC was above 100 µM.

As to `O=C1NC(N2CCCC(CO)C2)=N/C1=C\c1ccccc1` (stereo not drawn), the TGI in the assay with HOP-62 NSCLC, in the assay on SF-268 CNS, in the assay with SNB-75 CNS, with MOLT-4 leukemia, in the assay with BT-549 breast and with HCT-116 colon was above 100 µM each time. In the assay with HOP-92 NSCLC, this compound came in with a TGI above 100 µM.

On to `COC(=O)c1c(C)[nH]c2c1C(=O)C(=O)c1nc(C)c(C)nc1-2`, for which the TGI in the assay with HOP-62 NSCLC is 22 µM; in the assay on SF-268 CNS, 23.6 µM; in the assay on SNB-75 CNS it was 7.95 µM; with MOLT-4 leukemia it was 95 µM; in the assay on BT-549 breast, 23 µM; in the assay with HCT-116 colon, 18.2 µM. The TGI with HOP-92 NSCLC came to 24.8 µM.

For `COc1ccc(C[C@@H](C(=O)NCCNC(=O)C(CC(C)C)N(C)C(=O)[C@@H]2CCCN2C(=O)[C@H](C)O)N(C)C(=O)[C@@H]2CCCN2C(=O)[C@H](CC(C)C)NC(=O)C(C)NC(=O)OCc2ccccc2)cc1` (stereo partly drawn) (Cbz-[ξA]LP[NMeY](Me)-{Ethylenediamine-ξNMeL-Pro-Lac}), the TGI with HOP-62 NSCLC, with SF-268 CNS, with SNB-75 CNS, in the assay with MOLT-4 leukemia, in the assay with BT-549 breast and in the assay with HCT-116 colon was above 100 µM in each case. For the same compound, in the assay with HOP-92 NSCLC, the TGI was above 100 µM.

With `CCC(=O)NI1OC(=O)c2ccccc21`, the TGI in the assay on HOP-62 NSCLC, with SF-268 CNS, in the assay with SNB-75 CNS, in the assay with MOLT-4 leukemia, in the assay on BT-549 breast and in the assay on HCT-116 colon was above 100 µM throughout. The TGI in the assay with HOP-92 NSCLC is above 100 µM.

Turning to `COC(=O)CN(CC(O)C(NC(C)=O)C(O)C=O)C(=O)OCc1ccccc1` (stereo not drawn), the TGI in the assay with HOP-62 NSCLC, in the assay with SF-268 CNS, in the assay with SNB-75 CNS, with MOLT-4 leukemia, with BT-549 breast and in the assay on HCT-116 colon was above 100 µM each time. Also, the TGI with HOP-92 NSCLC was above 100 µM.

`Cc1c[nH]c(C(=O)O)c1-c1cccn1-c1ccc(Cl)cc1[N+](=O)[O-]`: the TGI with HOP-62 NSCLC, in the assay with SF-268 CNS, with SNB-75 CNS, in the assay with MOLT-4 leukemia, in the assay with BT-549 breast and in the assay on HCT-116 colon was above 100 µM in each case. For the same compound, in the assay with HOP-92 NSCLC, the TGI is above 100 µM.

In the case of `C=C1[C@H]2O[C@H]2[C@@H](OC(C)=O)[C@@]2(C)[C@@H](OC(C)=O)C[C@@H](OC(=O)CCC)[C@@](C)(O)[C@@H]2[C@@H](OC(C)=O)[C@]2(O)[C@@H](C)C(=O)O[C@H]2[C@H]1Cl`, the TGI in the assay with HOP-62 NSCLC, in the assay on SF-268 CNS, in the assay with SNB-75 CNS, with MOLT-4 leukemia, in the assay on BT-549 breast and with HCT-116 colon was above 100 µM each time. Moreover, the TGI with HOP-92 NSCLC was above 100 µM.

Take `O=C(O)Cc1ccc(Nc2nc3ccccc3nc2C(=O)O)cc1`: the TGI in the assay with HOP-62 NSCLC, in the assay with SF-268 CNS, with SNB-75 CNS, in the assay with MOLT-4 leukemia, in the assay on BT-549 breast and in the assay with HCT-116 colon was above 100 µM throughout. The compound further yielded a TGI with HOP-92 NSCLC above 100 µM.

With `O=c1cc(-c2ccccc2)[nH]c2ccc(S)cc12`, the TGI is above 100 µM in the assay with HOP-62 NSCLC; above 100 µM with SF-268 CNS; 76.1 µM in the assay with SNB-75 CNS; 39.8 µM with MOLT-4 leukemia; 55.2 µM with BT-549 breast; 66.9 µM with HCT-116 colon. This compound also yielded a TGI in the assay with HOP-92 NSCLC of 91.5 µM.

Consider `O=c1[nH]nc(-c2ccccc2)n1/N=C/c1ccco1`, for which the TGI was above 100 µM with HOP-62 NSCLC; above 100 µM in the assay with SF-268 CNS; above 100 µM in the assay with SNB-75 CNS; above 100 µM with MOLT-4 leukemia; 94.2 µM in the assay with BT-549 breast; above 100 µM with HCT-116 colon. The same compound gave a TGI in the assay on HOP-92 NSCLC above 100 µM.

As for `CCOC(=O)Nc1sc2c(c1C#N)CC(C)CC2` (stereo not drawn), the TGI with HOP-62 NSCLC was above 100 µM; in the assay with SF-268 CNS, 96.6 µM; with SNB-75 CNS, 38.2 µM; in the assay with MOLT-4 leukemia, above 100 µM; with BT-549 breast, above 100 µM; in the assay on HCT-116 colon, 25 µM. The TGI in the assay on HOP-92 NSCLC is above 100 µM.

As for `O=C(O)CCO/N=C1/C(c2c(O)[nH]c3ccccc23)=Nc2ccccc21`, the TGI is above 100 µM in the assay with HOP-62 NSCLC; above 100 µM in the assay with SF-268 CNS; 53.5 µM with SNB-75 CNS; 77.2 µM in the assay on MOLT-4 leukemia; above 100 µM in the assay with BT-549 breast; 34.8 µM with HCT-116 colon. This compound yielded a TGI in the assay on HOP-92 NSCLC of 96.9 µM.

The values are drawn from PubChem BioAssay (NCI).
